Where a name gives a salt, the structure may show the parent alone.
What was measured:
[1] = Test G: determination of in vitro stability in liver microsomes (human); assay type: in vitro ADME; settings: 37° C., up to 60 min, NADH/NADPH
Description: (§1) Liver microsomes are prepared from Sprague-Dawley rats and human liver samples according to internal SOPs. The compounds are incubated at 37° C. at a total microsome protein concentration of 3 mg/mL in a 0.05 mol/L TRIS buffer at pH 7.4, in the presence of the cofactors NADH (2.5 mmol/L) and NADPH (0.8 mmol/L). The initial concentration of compound is 5 or 10 μmol/L. Samples are taken for analysis up to 60 minutes after the start of the incubation. The enzymatic activity in the collected sample is immediately stopped by adding 20% […] at a volume corresponding to 3.3% of the total sample volume. The concentration of compound remaining (FINAL CONC) in the 60 min. sample is determined by means of LCMS using a sample collected at zero time as reference (START CONC). The % of degraded thrombin inhibitor is calculated as: […]

[2] = Test G: determination of in vitro stability in liver microsomes (rat); assay type: in vitro ADME; settings: 37° C., up to 60 min, NADH/NADPH
Description: as §1

Molecule | conversion to the corresponding active inhibitor (free amidine) in liver microsomes from humans [1] | conversion to the corresponding active inhibitor (free amidine) in liver microsomes from rats [2] | melting point [°C]
CCON=C(N)c1ccc(CNC(=O)[C@@H]2CCN2C(=O)[C@H](O)c2cc(Cl)cc(OC(F)F)c2)cc1 [Example 43, Ph(3-Cl)(5-OCHF2)—(R)CH(OH)C(O)-Aze-Pab(OEt)] | converted to the corresponding active inhibitor (free amidine) | converted to the corresponding active inhibitor (free amidine) | 
CON=C(N)c1ccc(CNC(=O)[C@@H]2CCN2C(=O)[C@H](O)c2cc(F)cc(OC(F)F)c2)cc1 [Example 26, Ph(3-F)(5-OCHF2)—(R)CH(OH)C(O)-Aze-Pab(OMe)] | converted to the corresponding active inhibitor (free amidine) | converted to the corresponding active inhibitor (free amidine) | 
CON=C(N)c1ccc(CNC(=O)[C@@H]2CCN2C(=O)[C@H](O)c2cc(Cl)cc(OCCF)c2)cc1 [Example 22, Ph(3-Cl)(5-OCH2CH2F)—(R)CH(OH)C(O)-Aze-Pab(OMe)] | converted to the corresponding active inhibitor (free amidine) | converted to the corresponding active inhibitor (free amidine) | 
CO/N=C(\N)c1cc(F)c(CNC(=O)[C@@H]2CCN2C(=O)[C@H](O)c2cc(Cl)cc(OC(F)F)c2)c(F)c1 [Example 40, Ph(3-Cl)(5-OCHF2)—(R)CH(OH)C(O)-Aze-Pab(2,6-diF)(OMe)] | converted to the corresponding active inhibitor (free amidine) | converted to the corresponding active inhibitor (free amidine) | 
Ph(3-Cl)(5-OCHF2)—(R)CH(OH)C(O)-Aze-Pab(OcBu) [Example 1] | converted to the corresponding active inhibitor (free amidine) | converted to the corresponding active inhibitor (free amidine) | 
CON=C(N)c1ccc(CNC(=O)[C@@H]2CCN2C(=O)[C@H](O)c2cc(Cl)cc(OC(F)F)c2)cc1 [Example 12, Ph(3-Cl)(5-OCHF2)—(R)CH(OH)C(O)-Aze-Pab(OMe)] | converted to the corresponding active inhibitor (free amidine) | converted to the corresponding active inhibitor (free amidine) | 
NC(=NO)c1ccc(CNC(=O)[C@@H]2CCN2C(=O)[C@H](O)c2cc(Cl)cc(OC(F)F)c2)cc1 [Example 2, Ph(3-Cl)(5-OCHF2)—(R)CH(OH)C(O)-Aze-Pab(OH)] | converted to the corresponding active inhibitor (free amidine) | converted to the corresponding active inhibitor (free amidine) | 
CON=C(N)c1ccc(CNC(=O)[C@@H]2CCCN2C(=O)[C@H](O)c2cc(Cl)cc(OC(F)F)c2)cc1 [Example 33, Ph(3-Cl)(5-OCHF2)—(R)CH(OH)—C(O)-Pro-Pab(OMe)] | converted to the corresponding active inhibitor (free amidine) | converted to the corresponding active inhibitor (free amidine) | 
CON=C(N)c1ccc(CNC(=O)[C@@H]2CCN2C(=O)[C@H](O)c2cc(Cl)cc(OCC(F)(F)F)c2)cc1 [Example 16, Ph(3-Cl)(5-OCH2CF3)—(R)CH(OH)C(O)-Aze-Pab(OMe)] | converted to the corresponding active inhibitor (free amidine) | converted to the corresponding active inhibitor (free amidine) | 
N=C(N)c1cnc(CNC(=O)[C@@H]2CCN2C(=O)[C@H](O)c2cc(Cl)cc(OC(F)F)c2)nc1 (as salt: TFA) [Example 36, Ph(3-Cl)(5-OCHF2)—(R)CH(OH)C(O)-Aze-NH—CH2-((5-amidino)-2-pyrimidinyl)] |  |  | 86 to 87
CO/N=C(\N)c1cnc(CNC(=O)[C@@H]2CCN2C(=O)[C@H](O)c2cc(Cl)cc(OC(F)F)c2)nc1 [Example 37, Ph(3-Cl)(5-OCHF2)—(R)CH(OH)C(O)-Aze-NH—CH2-((5-methoxyamidino)-2-pyrimidinyl)] | converted to the corresponding active inhibitor (free amidine) | converted to the corresponding active inhibitor (free amidine) | 
CC(C)ON=C(N)c1ccc(CNC(=O)[C@@H]2CCN2C(=O)[C@H](O)c2cc(Cl)cc(OC(F)F)c2)cc1 [Example 45, Ph(3-Cl)(5-OCHF2)—(R)CH(OH)C(O)-Aze-Pab(OiPr)] | converted to the corresponding active inhibitor (free amidine) | converted to the corresponding active inhibitor (free amidine) | 
Ph(3-Br)(5-OCHF2)—(R)CH(OH)C(O)-Aze-Pab(OMe) [Example 29] | converted to the corresponding active inhibitor (free amidine) | converted to the corresponding active inhibitor (free amidine) | 
CON=C(N)c1ccc(CNC(=O)[C@@H]2CCN2C(=O)[C@H](O)c2cc(Cl)cc(OCC(F)F)c2)cc1 [Example 18, Ph(3-Cl)(5-OCH2CHF2)—(R)CH(OH)C(O)-Aze-Pab(OMe)] | converted to the corresponding active inhibitor (free amidine) | converted to the corresponding active inhibitor (free amidine) | 
CON=C(N)c1ccc(CNC(=O)[C@@H]2CCN2C(=O)[C@H](O)c2cc(Cl)cc(OC(F)(F)F)c2)cc1 [Example 7, Ph(3-Cl)(5-OCF3)—(R)CH(OH)C(O)-Aze-Pab(OMe)] | converted to the corresponding active inhibitor (free amidine) | converted to the corresponding active inhibitor (free amidine) | 
CON=C(N)c1ccc(CNC(=O)[C@@H]2CCN2C(=O)[C@H](O)c2cc(Cl)cc(OCF)c2)cc1 [Example 20, Ph(3-Cl)(5-OCH2F)—(R)CH(OH)C(O)-Aze-Pab(OMe)] | converted to the corresponding active inhibitor (free amidine) | converted to the corresponding active inhibitor (free amidine) | 
CON=C(N)c1ccc(CNC(=O)[C@@H]2CCN2C(=O)[C@H](CO)c2cc(Cl)cc(OC(F)(F)F)c2)cc1 [Example 11, Ph(3-Cl)(5-OCF3)—(S)CH(CH2OH)C(O)-Aze-Pab(OMe)] | converted to the corresponding active inhibitor (free amidine) | converted to the corresponding active inhibitor (free amidine) | 
CON=C(N)c1ccc(CNC(=O)[C@@H]2CCN2C(=O)[C@H](O)c2cc(Cl)cc(OC(CF)CF)c2)cc1 [Example 24, Ph(3-Cl)(5-OCH(CH2F)2)—(R)CH(OH)C(O)-Aze-Pab(OMe)] | converted to the corresponding active inhibitor (free amidine) | converted to the corresponding active inhibitor (free amidine) | 
